This experiment relates to HCV proteins in Rep5.1 cells (replicon cell line). In words: Inhibitory activity of HCV: cell-based ELISA in replicon cell line Rep5.1 (decrease of HCV proteins). Also noted: species or system hepatitis C virus. Particulars: Hepatitis C virus, 72 h, Rep5.1 cells, 72 hours with drug. The procedure, abridged:
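HCV protein loss was quantified by ELISA on methanol/acetone-fixed cells 72 h after drug addition, probing with selected HCV-positive human plasma, and IC50 was defined as 50% reduction relative to untreated wells. The cells were Rep5.1 replicon cells cultured in DMEM-10 with 500 μg/ml G418, plated at 5000 per well and dosed with serial dilutions after 4 h attachment.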

Setting [1] is: concentration at which 50% of HCV proteins was decreased, Table 2, read-out: IC50.
[2] abbreviates: decrease of HCV proteins measured by HCV antibody, Table 1, read-out: Level (IC50 values classified).

The structures appear in SMILES notation. Where two headings read alike, the source gives them in different places.

The term IC50 denotes the point on the concentration scale where inhibition reaches its midpoint. As to `CCc1ccc(CCOC(=O)C2=C(C)NC(=S)NC2CO)cc1F` (centres unmarked) [72″, 4-hydroxymethyl-6-methyl-2-thioxo-1,2,3,4-tetrahydro-pyrimidine-5-carboxylic acid 2-(4-ethyl-3-fluoro-phenyl)-ethyl ester], the IC50 runs as follows: under setting [1], 0.4 µM; under setting [2], less than 1 µM.
The matching figures for `COC(=O)C1=C(C(=O)OCc2ccccc2)CNC(=S)N1` [Compound 196, 2-thioxo-1,2,3,6-tetrahydro-pyrimidine-4,5-dicarboxylic acid 5-benzyl ester 4-methyl ester]: 43 µM and greater than 20 µM.
The matching figures for `CC1=C(C(=O)OCc2cccc([N+](=O)[O-])c2)CNC(=S)N1` [Compound 77, 6-methyl-2-thioxo-1,2,3,4-tetrahydro-pyrimidine-5-carboxylic acid 3-nitro-benzyl ester]: 2.3 µM and 1 to 10 µM.
The matching figures for `CC1=C(C(=O)OCn2nnc3ccccc32)CNC(=S)N1` [Compound 225, 6-methyl-2-thioxo-1,2,3,4-tetrahydro-pyrimidine-5-carboxylic acid benzotriazol-1-ylmethyl ester]: greater than 100 µM and greater than 20 µM.
With `CC1=C(C(=O)OCCc2ccc(Cl)cc2)C(CO)NC(=S)N1` (centres unmarked) [35″, 4-hydroxymethyl-6-methyl-2-thioxo-1,2,3,4-tetrahydro-pyrimidine-5-carboxylic acid 2-(4-chloro-phenyl)-ethyl ester], the IC50 by setting is: under setting [1], 1.6 µM; under setting [2], 1 to 10 µM.
On to `CC1=C(C(=O)OCc2cc3c(C)snc3s2)CNC(=S)N1` [Compound 213, 6-methyl-2-thioxo-1,2,3,4-tetrahydro-pyrimidine-5-carboxylic acid 3-methyl-thieno[2,3-c]isothiazol-5-ylmethyl ester], for which the IC50 by setting is: under setting [1], 4 µM; under setting [2], 1 to 10 µM.
The matching figures for `CC1=C(C(=O)OCCc2ccsc2)C(C(F)(F)F)NC(=S)N1` (centres unmarked) [8′, 6-methyl-2-thioxo-4-trifluoromethyl-1,2,3,4-tetrahydro-pyrimidine-5-carboxylic acid 2-thiophen-3-yl-ethyl ester]: 21 µM and greater than 20 µM.
In the same order, the values of `CC1=C(C(=O)OCCc2cccc(Cl)c2)C(COC(=O)OCCS(C)(=O)=O)NC(=S)N1` (centres unmarked) [84″, 4-(2-methanesulfonyl-ethoxycarbonyloxymethyl)-6-methyl-2-thioxo-1,2,3,4-tetrahydro-pyrimidine-5-carboxylic acid 2-(3-chloro-phenyl)-ethyl ester] are 0.9 µM and less than 1 µM.
The matching figures for `CC1=C(C(=O)OCc2cc(Cl)ccc2[N+](=O)[O-])C(CO)NC(=S)N1` (centres unmarked) [47″, 4-hydroxymethyl-6-methyl-2-thioxo-1,2,3,4-tetrahydro-pyrimidine-5-carboxylic acid 5-chloro-2-nitro-benzyl ester]: greater than 100 µM and greater than 20 µM.
In the case of `CC1=C(C(=O)OCc2sc3sc(C)nc3c2C)CNC(=S)N1` [Compound 216, 6-methyl-2-thioxo-1,2,3,4-tetrahydro-pyrimidine-5-carboxylic acid 2,6-dimethyl-thieno[3,2-d]thiazol-5-ylmethyl ester], the IC50 reads like this: under setting [1], 5 µM; under setting [2], 1 to 10 µM.
The matching figures for `CC1=C(C(=O)OCC2CCC2)CNC(=S)N1` [Compound 80, 6-methyl-2-thioxo-1,2,3,4-tetrahydro-pyrimidine-5-carboxylic acid cyclobutylmethyl ester]: 2.3 µM and 1 to 10 µM.
The matching figures for `CCc1ccc(COC(=O)C2=C(C)NC(=S)NC2)o1` [Compound 264, 6-methyl-2-thioxo-1,2,3,4-tetrahydro-pyrimidine-5-carboxylic acid 5-ethyl-furan-2-ylmethyl ester]: 13 µM and 10 to 20 µM.
On to `CC1=C(C(=O)OCc2ccc(OCC(C)C)cc2)CNC(=S)N1` [Compound 72, 6-methyl-2-thioxo-1,2,3,4-tetrahydro-pyrimidine-5-carboxylic acid 4-isobutoxy-benzyl ester], for which the IC50 was less than 0.5 µM under setting [1] and less than 1 µM under setting [2].

The record behind these values is patent US20060116390A1, “Hepatitis c virus inhibitors” (priority 2003, published 2006).
